Where a name gives a salt, the structure may show the parent alone. Read-outs that look alike come from different tables or passages of the source.
Test system: progranulin
Experiment: Progranulin induction cellular assay (ELISA of secreted mouse PGRN)
Type: cell-based
Outline: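 Secreted mouse PGRN in culture medium is measured by ELISA. Cells tested are BV-2, primary cortical neurons and primary microglia. BV-2 cells are plated a day ahead, allowed 1 h to attach, then incubated 16 h.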

[1] = progranulin induction assay, mouse pMG, primary cortical neurons and BV-2 cell lines named, cell type not given, ELISA-based readout, read-out: EC50

SMILES	EC50 [1]	EC50 (Mus musculus, BV-2, read-out: EC50 μM)
CCCO[C@H]1CO[C@@H](C(=O)N2CCc3ccccc3[C@@H]2c2ccc(F)cc2)C[C@@H]1N [Compound 5502, ((2R,4S,5R)-4-amino-5-propoxytetrahydro-2H-pyran-2-yl)((S)-1-(4-fluorophenyl)-3,4-dihydroisoquinolin-2(1H)-yl)methanone]	0.001 µM	
CN[C@H]1C[C@H](C(=O)N2CCc3ccccc3[C@@H]2c2ccc(F)cc2)OC[C@@H]1OC [Compound 5503, ((S)-1-(4-fluorophenyl)-3,4-dihydroisoquinolin-2(1H)-yl)((2R,4S,5R)-5-methoxy-4-(methylamino)tetrahydro-2H-pyran-2-yl)methanone]	0.005 µM	
CCN[C@H]1C[C@H](C(=O)N2CCc3ccccc3[C@@H]2c2ccc(F)cc2)OC[C@@H]1OC [Compound 5504, ((2R,4S,5R)-4-(ethylamino)-5-methoxytetrahydro-2H-pyran-2-yl)((S)-1-(4-fluorophenyl)-3,4-dihydroisoquinolin-2(1H)-yl)methanone]	0.009 µM	
C[C@@]1(C(=O)N2CCc3ccccc3[C@@H]2c2ccc(F)cc2)OCCNC[C@H]1O [Compound 5505]	0.41 µM	
C[C@]1(C(=O)N2CCc3ccccc3[C@@H]2c2ccc(F)cc2)OCCNC[C@@H]1O [Compound 5506]	0.398 µM	
N[C@H]1C[C@H](C(=O)N2CCc3ccccc3[C@@H]2c2ccc(F)cc2)OC[C@@H]1OC(F)(F)F [Compound 5507, ((2R,4S,5R)-4-amino-5-(trifluoromethoxy)tetrahydro-2H-pyran-2-yl)((S)-1-(4-fluorophenyl)-3,4-dihydroisoquinolin-2(1H)-yl)methanone]	0.001 µM	
CCN[C@H]1C[C@H](C(=O)N2CCc3ccccc3[C@@H]2c2ccc(F)cc2)OC[C@H]1O [Compound 5508, ((2R,4S,5S)-4-(ethylamino)-5-hydroxytetrahydro-2H-pyran-2-yl)((S)-1-(4-fluorophenyl)-3,4-dihydroisoquinolin-2(1H)-yl)methanone]	0.03 µM	
CCO[C@H]1CO[C@@H](C(=O)N2CCc3ccccc3[C@@H]2c2ccc(F)cc2)C[C@@H]1NC [Compound 5509, ((2R,4S,5R)-5-ethoxy-4-(methylamino)tetrahydro-2H-pyran-2-yl)((S)-1-(4-fluorophenyl)-3,4-dihydroisoquinolin-2(1H)-yl)methanone]	0.001 µM	
CCN[C@H]1C[C@H](C(=O)N2CCc3ccccc3[C@@H]2c2ccc(F)cc2)OC[C@@H]1OCC [Compound 5510, ((2R,4S,5R)-5-ethoxy-4-(ethylamino)tetrahydro-2H-pyran-2-yl)((S)-1-(4-fluorophenyl)-3,4-dihydroisoquinolin-2(1H)-yl)methanone]	0.002 µM	
CC(C)(C)O[C@H]1CO[C@@H](C(=O)N2CCc3ccccc3[C@@H]2c2ccc(F)cc2)C[C@@H]1N [Compound 5511, ((2R,4S,5R)-4-amino-5-(tert-butoxy)tetrahydro-2H-pyran-2-yl)((S)-1-(4-fluorophenyl)-3,4-dihydroisoquinolin-2(1H)-yl)methanone]	0.0002 µM	
CC(=O)N[C@H]1CO[C@@H](C(=O)N2CCc3ccccc3[C@@H]2c2ccc(F)cc2)C[C@@H]1N [Compound 5512, N-((3R,4S,6R)-4-amino-6-((S)-1-(4-fluorophenyl)-1,2,3,4-tetrahydroisoquinoline-2-carbonyl)tetrahydro-2H-pyran-3-yl)acetamide]		0.005 µM
CCC(=O)N[C@H]1CO[C@@H](C(=O)N2CCc3ccccc3[C@@H]2c2ccc(F)cc2)C[C@@H]1N [Compound 5513, N-((3R,4S,6R)-4-amino-6-((S)-1-(4-fluorophenyl)-1,2,3,4-tetrahydroisoquinoline-2-carbonyl)tetrahydro-2H-pyran-3-yl)propionamide]	0.03 µM	
N[C@H]1C[C@H](C(=O)N2CCc3ccccc3[C@@H]2c2ccc(F)cc2)OC[C@@H]1NC(=O)C(F)(F)F [Compound 5514, N-((3R,4S,6R)-4-amino-6-((S)-1-(4-fluorophenyl)-1,2,3,4-tetrahydroisoquinoline-2-carbonyl)tetrahydro-2H-pyran-3-yl)-2,2,2-trifluoroacetamide]	0.024 µM	
CC(=O)N(C)[C@H]1CO[C@@H](C(=O)N2CCc3ccccc3[C@@H]2c2ccc(F)cc2)C[C@@H]1N [Compound 5516, N-((3R,4S,6R)-4-amino-6-((S)-1-(4-fluorophenyl)-1,2,3,4-tetrahydroisoquinoline-2-carbonyl)tetrahydro-2H-pyran-3-yl)-N-methylacetamide]	0.007 µM	
CCC(=O)N(C)[C@H]1CO[C@@H](C(=O)N2CCc3ccccc3[C@@H]2c2ccc(F)cc2)C[C@@H]1N [Compound 5517, N-((3R,4S,6R)-4-amino-6-((S)-1-(4-fluorophenyl)-1,2,3,4-tetrahydroisoquinoline-2-carbonyl)tetrahydro-2H-pyran-3-yl)-N-methylpropionamide]	0.012 µM	
C[C@H]1CO[C@@H](C(=O)N2CCc3ccccc3[C@@H]2c2ccc(F)cc2)C[C@@H]1N [Compound 5518, ((2R,4S,5R)-4-amino-5-methyltetrahydro-2H-pyran-2-yl)((S)-1-(4-fluorophenyl)-3,4-dihydroisoquinolin-2(1H)-yl)methanone]	0.015 µM	
C[C@@H]1CO[C@@H](C(=O)N2CCc3ccccc3[C@@H]2c2ccc(F)cc2)C[C@@H]1N [Compound 5519, ((2R,4S,5S)-4-amino-5-methyltetrahydro-2H-pyran-2-yl)((S)-1-(4-fluorophenyl)-3,4-dihydroisoquinolin-2(1H)-yl)methanone]	0.041 µM	
CS[C@H]1CO[C@@H](C(=O)N2CCc3ccccc3[C@@H]2c2ccc(F)cc2)C[C@@H]1N [Compound 5520, ((2R,4S,5R)-4-amino-5-(methylthio)tetrahydro-2H-pyran-2-yl)((S)-1-(4-fluorophenyl)-3,4-dihydroisoquinolin-2(1H)-yl)methanone]	0.004 µM	
CCS[C@H]1CO[C@@H](C(=O)N2CCc3ccccc3[C@@H]2c2ccc(F)cc2)C[C@@H]1N [Compound 5521, ((2R,4S,5R)-4-amino-5-(ethylthio)tetrahydro-2H-pyran-2-yl)((S)-1-(4-fluorophenyl)-3,4-dihydroisoquinolin-2(1H)-yl)methanone]	0.008 µM	
N[C@H]1C[C@H](C(=O)N2CCc3ccccc3[C@@H]2c2ccc(F)cc2)OC[C@@H]1OC1CCC1 [Compound 5525, ((2R,4S,5R)-4-amino-5-cyclobutoxytetrahydro-2H-pyran-2-yl)((S)-1-(4-fluorophenyl)-3,4-dihydroisoquinolin-2(1H)-yl)methanone]	0.0003 µM	

More lines, main results first:

EC50 [1]	SMILES	EC50 (Mus musculus, BV-2, read-out: EC50 μM)
0.016 µM	CS(=O)(=O)[C@H]1CO[C@@H](C(=O)N2CCc3ccccc3[C@@H]2c2ccc(F)cc2)C[C@@H]1N [Compound 5523, ((2R,4S,5R)-4-amino-5-(methylsulfonyl)tetrahydro-2H-pyran-2-yl)((S)-1-(4-fluorophenyl)-3,4-dihydroisoquinolin-2(1H)-yl)methanone]	
0.016 µM	CCS(=O)(=O)[C@H]1CO[C@@H](C(=O)N2CCc3ccccc3[C@@H]2c2ccc(F)cc2)C[C@@H]1N [Compound 5524, ((2R,4S,5R)-4-amino-5-(ethylsulfonyl)tetrahydro-2H-pyran-2-yl)((S)-1-(4-fluorophenyl)-3,4-dihydroisoquinolin-2(1H)-yl)methanone]	
0.006 µM	CC[C@H]1CO[C@@H](C(=O)N2CCc3ccccc3[C@@H]2c2ccc(F)cc2)C[C@@H]1N [Compound 5526, ((2R,4S,5R)-4-amino-5-ethyltetrahydro-2H-pyran-2-yl)((S)-1-(4-fluorophenyl)-3,4-dihydroisoquinolin-2(1H)-yl)methanone]	
0.274 µM	N[C@H]1C[C@H](C(=O)N2CCc3ccccc3[C@@H]2c2ccc(F)cc2)OC[C@@H]1Oc1ccccc1 [Compound 5527, ((2R,4S,5R)-4-amino-5-phenoxytetrahydro-2H-pyran-2-yl)((S)-1-(4-fluorophenyl)-3,4-dihydroisoquinolin-2(1H)-yl)methanone]	
0.168 µM	CN1C=N[C@H]2C[C@H](C(=O)N3CCc4ccccc4[C@@H]3c3ccc(F)cc3)OC[C@H]21 [Compound 5528, ((S)-1-(4-fluorophenyl)-3,4-dihydroisoquinolin-2(1H)-yl)((3aS,6R,7aS)-3-methyl-3,3a,4,6,7,7a-hexahydropyrano[3,4-d]imidazol-6-yl)methanone hydrochloride]	
1.56 µM	Cn1cnc2c1CO[C@@H](C(=O)N1CCc3ccccc3[C@@H]1c1ccc(F)cc1)C2 [Compound 5529, ((S)-1-(4-fluorophenyl)-3,4-dihydroisoquinolin-2(1H)-yl)((R)-3-methyl-3,4,6,7-tetrahydropyrano[3,4-d]imidazol-6-yl)methanone]	
0.0003 µM	N[C@H]1C[C@H](C(=O)N2CCc3ccccc3[C@@H]2c2ccc(F)cc2)OC[C@@H]1OC1CC1 [Compound 5530, ((2R,4S,5R)-4-amino-5-cyclopropoxytetrahydro-2H-pyran-2-yl)((S)-1-(4-fluorophenyl)-3,4-dihydroisoquinolin-2(1H)-yl)methanone]	
0.088 µM	N[C@H]1C[C@H](C(=O)N2CCc3ccccc3[C@@H]2c2ccc(F)cc2)OC[C@@H]1OCc1ccccc1 [Compound 5531, ((2R,4S,5R)-4-amino-5-(benzyloxy)tetrahydro-2H-pyran-2-yl)((S)-1-(4-fluorophenyl)-3,4-dihydroisoquinolin-2(1H)-yl)methanone]	
1.68 µM	O=C1CN[C@H]2C[C@H](C(=O)N3CCc4ccccc4[C@@H]3c3ccc(F)cc3)OC[C@@H]2N1 [Compound 5532, (4aR,7R,8aS)-7-((S)-1-(4-fluorophenyl)-1,2,3,4-tetrahydroisoquinoline-2-carbonyl)hexahydro-2H-pyrano[3,4-b]pyrazin-3(4H)-one]	
0.289 µM	CN1C(=O)CN[C@H]2C[C@H](C(=O)N3CCc4ccccc4[C@@H]3c3ccc(F)cc3)OC[C@@H]21 [Compound 5533, (4aR,7R,8aS)-7-((S)-1-(4-fluorophenyl)-1,2,3,4-tetrahydroisoquinoline-2-carbonyl)-4-methylhexahydro-2H-pyrano[3,4-b]pyrazin-3(4H)-one]	
